Source: patent publication US10005803B2, “Crystalline forms of fosnetupitant” (Helsinn Healthcare SA, priority 2015, dated 2018)
“Also recorded” adds a separate entry of the source.

Legend:
[1] = Description: The solubility of the starting compound was determined in 25 pharmaceutically acceptable solvents (class II and III) of differing polarity. The procedure was as follows:
Approximately 20 mg of material was weighed out into each glass vial.
The mixture was stirred at RT for 5-10 minutes. Visual checks were then made for solubility.
If no solubility was achieved then steps (ii) and (iii) were repeated until either the solubility was achieved or the 50 volume aliquots of that solvent were added.
Solubility was then approximated.
Solubility was finally checked at the elevated temperature (40° C.).

[2] = Gravimetric Vapor Sorption (GVS); format: physicochemical; settings: for Overall moisture uptake: 0% to 90% RH (Form I: % w/w, whole studied RH range up to 90% RH); for Moisture uptake / gradual Wt increase: from 0% to 50% RH; for Hygroscopicity class by GVS: weight increase at 80% RH; for Largest Wt increase: from 70 to 90% RH
Description: 1.7.6 Gravimetric Vapor Sorption (GVS)
Approximately 20 mg of sample was placed into a wire-mesh vapor sorption balance pan and loaded into an ‘IgaSorp’ vapor sorption balance (Hiden Analytical Instruments). The sample was then dried by maintaining a 0% humidity environment until no further weight change was recorded. Subsequently, the sample was subjected to a ramping profile from 0-90% RH at 10% RH increments, maintaining the sample at each step until equilibration had been attained (99.5% step completion). Upon reaching equilibration, the % RH within the apparatus was ramped to the next step and the equilibration procedure repeated. After completion of the sorption cycle, the sample was dried using the profile from 85-5% RH at 10% RH increments same procedure. At last, the sample was dried by maintaining a 0% humidity environment until no further weight change was recorded. The weight change during the sorption/desorption cycles were then monitored, allowing the hygroscopic nature of the sample to be determined.

[3] = Stability studies at 40° C./75% RH (open vial); format: physicochemical; settings: 1 week (7 days), checked by XRPD, Raman
Description: The polymorphs identified were stored at 40° C./75% RH (open vial). Each sample was put in a glass vial un-capped. Analysis was carried out at 7 days by XRPD and Raman for any potential change in crystalline structure.

Solubility (in words) [1] | Overall moisture uptake [2] | Moisture uptake / gradual Wt increase [2] | Form change detected by GVS ([2]; sorption/desorption cycle 0-90% RH) | Hygroscopicity class by GVS [2] | Sharp Wt increase in absorption ([2]; @10% RH) | Loss of weight in the absorption process ([2]; at 60% RH) [% w/w] | Moisture uptake ([2]; from 0 to 70% RH) | Gradual Wt increases, total ([2]; from 20 to 70% RH) | Largest Wt increase [2] | Loss of weight in absorption process ([2]; at 80% RH) [% w/w] | Compound | Generated form (change in crystalline structure) [3]
very poor solubility | about 45% | about 5% | No form changes were detected | very hygroscopic (>15%@80% RH) |  |  |  |  |  |  | Cc1ccccc1-c1cc(N2CC[N+](C)(COP(=O)(O)O)CC2)ncc1N(C)C(=O)C(C)(C)c1cc(C(F)(F)F)cc(C(F)(F)F)c1.Cl.[Cl-] [Form I, 4-(5-(2-(3,5-bis(trifluoromethyl)phenyl)-N,2-dimethylpropanamido)-4-(o-tolyl)pyridin-2-yl)-1-methyl-1-((phosphonooxy)methyl)piperazin-1-ium] | changes in crystalline structures; also recorded: changed
 | circa 12.75% |  |  | hygroscopic (15%>Wt increase>2%%@80% RH) | circa 2.92 % w/w | ~0.2 | circa 4.12% | circa 1.2 % w/w | circa 8.63 % w/w |  | Cc1ccccc1-c1cc(N2CC[N+](C)(COP(=O)(O)O)CC2)ncc1N(C)C(=O)C(C)(C)c1cc(C(F)(F)F)cc(C(F)(F)F)c1.Cl.[Cl-] [Form II, 4-(5-(2-(3,5-bis(trifluoromethyl)phenyl)-N,2-dimethylpropanamido)-4-(o-tolyl)pyridin-2-yl)-1-methyl-1-((phosphonooxy)methyl)piperazin-1-ium] | not and No change
 | circa 25% | circa 5.19% |  | very hygroscopic (>15%@80% RH) |  |  |  |  | circa 8.63 % w/w | ~5.82 | Cc1ccccc1-c1cc(N2CC[N+](C)(COP(=O)(O)O)CC2)ncc1N(C)C(=O)C(C)(C)c1cc(C(F)(F)F)cc(C(F)(F)F)c1.Cl.[Cl-] [Form III, 4-(5-(2-(3,5-bis(trifluoromethyl)phenyl)-N,2-dimethylpropanamido)-4-(o-tolyl)pyridin-2-yl)-1-methyl-1-((phosphonooxy)methyl)piperazin-1-ium] | changes in crystalline structures; also recorded: changed
